Laboratory results: ChEMBL document CHEMBL1201862, “PubChem BioAssay data set” (2004)
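Five compound concentrations were applied to cells in 96-well plates for 48 hours; endpoints were derived by simple linear interpolation of the resulting dose-response curve. GI50 is the concentration that inhibits growth by half.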 Calls of active or inactive are those of the source. Rule as the data show it: active = GI50 up to about 1.1 µM and inactive = higher.

Key:
Experiment in all cases: inhibition of tumour cell growth, NCI panel, 48 h
IGROV-1 = tested on: IGROV-1
MOLT-4 = tested on: MOLT-4
SW-620 = tested on: SW-620
OVCAR-8 = tested on: OVCAR-8
OVCAR-4 = tested on: OVCAR-4
EKVX = tested on: EKVX
UACC-257 = tested on: UACC-257
SF-539 = tested on: SF-539
OVCAR-5 = tested on: OVCAR-5
NCI-H460 = tested on: NCI-H460
LOX IMVI = tested on: LOX IMVI
CCRF-CEM = tested on: CCRF-CEM
UACC-62 = tested on: UACC-62
HCT-116 = tested on: HCT-116
A549 = tested on: A549
SN12C = tested on: SN12C
SNB-75 = tested on: SNB-75
SK-MEL-28 = tested on: SK-MEL-28
HCC 2998 = tested on: HCC 2998
CAKI-1 = tested on: CAKI-1

Measured: GI50

Nc1nncc2c1ccn2C1OC(CO)C(O)C1O (stereo not drawn)
inactive: IGROV-1 > 100 µM | MOLT-4 > 100 µM | SW-620 > 100 µM | OVCAR-8 > 100 µM | OVCAR-4 > 100 µM | EKVX > 100 µM | UACC-257 > 100 µM | SF-539 > 100 µM | OVCAR-5 > 100 µM | NCI-H460 > 100 µM | LOX IMVI > 100 µM | CCRF-CEM > 100 µM | UACC-62 > 100 µM | HCT-116 > 100 µM | A549 > 100 µM | SN12C > 100 µM | SNB-75 > 100 µM | SK-MEL-28 82.8 µM | HCC 2998 > 100 µM

O=S(=O)(/N=C(\NO)Nc1ccc(Cl)cc1)c1ccc(-c2ccccn2)s1
inactive: IGROV-1 38.5 µM | MOLT-4 40.1 µM | SW-620 48.1 µM | OVCAR-8 69.5 µM | OVCAR-4 16.4 µM | EKVX 34.3 µM | UACC-257 34 µM | SF-539 41.4 µM | OVCAR-5 74.1 µM | NCI-H460 87.3 µM | LOX IMVI 57.8 µM | CAKI-1 6.25 µM | CCRF-CEM 42.8 µM | UACC-62 44.2 µM | HCT-116 38.6 µM | A549 61 µM | SN12C 24.4 µM | SNB-75 50.7 µM | SK-MEL-28 69.2 µM

C=CNC(=S)n1nc(-c2ccccc2NC(=O)C(F)(F)F)c(=O)n(C(=S)NC=C)c1=S
inactive: IGROV-1 54 µM | MOLT-4 15.4 µM | SW-620 59.8 µM | OVCAR-8 33 µM | OVCAR-4 3.58 µM | EKVX 22.3 µM | OVCAR-5 26.7 µM | NCI-H460 15.1 µM | LOX IMVI 31.8 µM | CAKI-1 23.1 µM | CCRF-CEM 24.9 µM | UACC-62 45.8 µM | HCT-116 > 100 µM | SN12C 48.9 µM | SNB-75 26 µM | SK-MEL-28 > 100 µM | HCC 2998 47.9 µM

COc1ccc(C2c3cc4c(cc3OC(Nc3ccccc3)C2C)OCO4)cc1 (stereo not drawn)
inactive: IGROV-1 99.8 µM | MOLT-4 11.2 µM | SW-620 64.3 µM | EKVX 8.59 µM | UACC-257 75.2 µM | SF-539 > 100 µM | OVCAR-5 > 100 µM | NCI-H460 7.98 µM | LOX IMVI 27.7 µM | CAKI-1 25.4 µM | CCRF-CEM 14.1 µM | UACC-62 52.8 µM | HCT-116 12.7 µM | A549 22.5 µM | SN12C 61.1 µM | SNB-75 44.1 µM | SK-MEL-28 > 100 µM | HCC 2998 67.9 µM
